The values below come from PMC6379498, “Radiosynthesis and in vivo evaluation of ^11C-labeled BMS-193885 and its desmethyl analog as PET tracers for neuropeptide Y1 receptors” (EJNMMI Radiopharmacy and Chemistry, 2019).

One series concerns the target T1, NPY Y1-Rs (Mus musculus, UniProt Q04573).
T1 construct: in the lung, spleen, and kidney, which are rich in NPY Y1-Rs; from tissue; host or cells: organs of living mice (blood, heart, lung, spleen, kidney, liver, pancreas, muscle, brain etc.)
T1 sequence (Q04573 1-382): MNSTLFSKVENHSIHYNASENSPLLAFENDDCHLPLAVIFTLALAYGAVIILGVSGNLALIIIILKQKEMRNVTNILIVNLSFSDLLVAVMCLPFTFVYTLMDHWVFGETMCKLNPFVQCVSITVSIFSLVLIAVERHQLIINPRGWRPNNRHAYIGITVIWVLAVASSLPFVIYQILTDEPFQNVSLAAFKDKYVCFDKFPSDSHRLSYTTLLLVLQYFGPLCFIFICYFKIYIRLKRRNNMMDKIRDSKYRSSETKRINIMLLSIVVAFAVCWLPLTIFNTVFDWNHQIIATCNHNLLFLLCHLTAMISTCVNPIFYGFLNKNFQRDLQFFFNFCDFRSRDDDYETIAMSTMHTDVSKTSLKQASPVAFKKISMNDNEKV
Description: Effect of pretreatment with 1 (BMS-193885) on tissue distribution of radioactivity. Format: in vivo, mice. Conditions: 30 min post-injection, 1 10 mg/kg 20-30 min before tracer, vs control. The method, then:
[^11C]1 (7.1–14 MBq/0.079–0.23 nmol) or [^11C]2 (6.0 MBq/0.16 nmol) was intravenously injected into mice (aged 7–8 weeks, weighing 32–36 g, n = 4–8) 20–30 min after the administration of the solution of 1 (10 mg/kg body weight [b.w.]/0.1 mL water containing 20% Tween 80), elacridar (5 mg/kg b.w./0.1 mL water), or a control fluid (0.1 mL water). Mice were euthanized by cervical dislocation at 30 min post-injection.
Blood samples were collected by heart puncture. Tissues were dissected and weighed. […] The tissue uptake of radioactivity was expressed as the percentage of injected dose detected per gram of sample (%ID/g, tissue radioactivity/g tissue/injected radioactivity × 100).

A short description of series [1]: Metabolite analysis of mouse plasma after co-injection of [^11C]1 with 1. Format: in vivo, mice. To be noted: 30 min after co-injection of [^11C]1 with 1 (50 mg/kg), radio- and UV-HPLC. As for the experimental part:
In addition, the effects of co-injection of [^11C]1 with 1 on the results of metabolite analyses of plasma were investigated. [^11C]1 (26-30 MBq/0.38-0.45 nmol) and a solution of 1 (50 mg/kg b.w. in water containing 20% Tween 80) were intravenously co-injected into mice (aged 7-9 weeks, weighing 35-39 g, n = 4). Mice were euthanized by cervical dislocation at 30 min post-injection. Blood samples taken by heart puncture were collected into heparinized syringes. The samples were centrifuged at 13,000×g (Model 5500, KUBOTA, Tokyo, Japan) for 3 min at 4 °C to obtain plasma (0.2 mL). Plasma samples were added to equivalent volumes of acetonitrile, and mixtures were centrifuged at 20,000×g for 2 min. The precipitate was added to 0.2 mL of acetonitrile, and this mixture was centrifuged at 20,000×g for 2 min to obtain the supernatant. The mixed supernatant was added to 0.2 mL of water, and this solution was loaded into the injector loop. HPLC analysis was performed using the abovementioned radio-HPLC system for metabolite analysis, and also a […] column (5 μm mesh, 10 mm i.d. × 150 mm length; YMC, Kyoto, Japan). Elution was performed using a mixture of 90% acetonitrile solution and 0.1 mol/L ammonium acetate solution (45:55, vol./vol.). The flow rate was 4 mL/min.

`COC(=O)C1=C(C)NC(C)=C(C(=O)OC)C1c1cccc(NC(=O)NCCCN2CCC(c3cccc(O[11CH3])c3)CC2)c1` [[^11C]1]: on NPY Y1-Rs, the “Change of radioactivity level in blood by pretreatment with 1” value is “not changed”, the “Change of radioactivity level in brain by pretreatment with 1” value is “not changed”, the “Change of radioactivity level in heart by pretreatment with 1” value is reported as “not changed” and the “Change of radioactivity level in kidney by pretreatment with 1” value was “significantly decreased”. Besides, on NPY Y1-Rs, the “Change of radioactivity level in lung by pretreatment with 1” value was “significantly decreased”, the “Change of radioactivity level in muscle by pretreatment with 1” value was “not changed”, the “Change of radioactivity level in pancreas by pretreatment with 1” value is on record as “not changed” and the “Change of radioactivity level in spleen by pretreatment with 1” value is given as “significantly decreased”. The “Metabolites found in mouse plasma” value in series [1] is “rapidly metabolized into its unlabeled desmethyl analog 2 and radiolabeled components”.
Regarding `COC(=O)C1=C(C)NC(C)=C(C(=O)OC)C1c1cccc(N[11C](=O)NCCCN2CCC(c3cccc(O)c3)CC2)c1` [[^11C]2], on NPY Y1-Rs, the “Change of radioactivity level in blood by pretreatment with 1” value was “not changed”, the “Change of radioactivity level in brain by pretreatment with 1” value was “not changed”, the “Change of radioactivity level in heart by pretreatment with 1” value is reported as “not changed” and the “Change of radioactivity level in kidney by pretreatment with 1” value is “significantly decreased”. At NPY Y1-Rs, the “Change of radioactivity level in lung by pretreatment with 1” value is reported as “significantly decreased”, the “Change of radioactivity level in muscle by pretreatment with 1” value is reported as “not changed”, the “Change of radioactivity level in pancreas by pretreatment with 1” value is given as “not changed” and the “Change of radioactivity level in spleen by pretreatment with 1” value is on record as “significantly decreased”.
